Tested on: 699152-130-R-J1-PDC complex spheroid viability
Test: Anticancer human tumor 699152-130-R-J1-PDC patient-derived pancreatic carcinoma cell line growth inhibition [POLQ]
Settings: for IC50: curve of first compound; for viability, T/C: stronger effect = lower value
How it was run: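 Growth inhibition in 3D: complex spheroids (tumor PDC, HUVEC, MSC) treated with POLQ inhibitor combinations; where Cmax unknown, highest tested concentration 10 microM, except SN-38 at 1 microM.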

[1] = second compound 0.0316 µM, first compound 0.00316 µM
[2] = second compound 0.0316 µM, first compound 0.01 µM
[3] = second compound 0.0316 µM, first compound 0.0316 µM
[4] = second compound 0.0316 µM, first compound 0.1 µM
[5] = second compound 0.0316 µM, first compound 0.316 µM
[6] = second compound 0.0316 µM, first compound 1 µM
[7] = second compound 0.1 µM, first compound 0.00316 µM
[8] = second compound 0.1 µM, first compound 0.01 µM
[9] = second compound 0.1 µM, first compound 0.0316 µM
[10] = second compound 0.1 µM, first compound 0.1 µM
[11] = second compound 0.1 µM, first compound 0.316 µM
[12] = second compound 0.1 µM, first compound 1 µM
[13] = second compound 0.316 µM, first compound 0.00316 µM
[14] = second compound 0.316 µM, first compound 0.01 µM
[15] = second compound 0.316 µM, first compound 0.0316 µM
[16] = second compound 0.316 µM, first compound 0.1 µM
[17] = second compound 0.316 µM, first compound 0.316 µM
[18] = second compound 0.316 µM, first compound 1 µM
[19] = second compound 1 µM, first compound 0.00316 µM
[20] = second compound 1 µM, first compound 0.01 µM
[21] = second compound 1 µM, first compound 0.0316 µM
[22] = second compound 1 µM, first compound 0.1 µM
[23] = second compound 1 µM, first compound 0.316 µM
[24] = second compound 1 µM, first compound 1 µM
[25] = second compound 3.16 µM, first compound 0.00316 µM
[26] = second compound 3.16 µM, first compound 0.01 µM
[27] = second compound 3.16 µM, first compound 0.0316 µM
[28] = second compound 3.16 µM, first compound 0.1 µM
[29] = second compound 3.16 µM, first compound 0.316 µM
[30] = second compound 3.16 µM, first compound 1 µM
[31] = second compound 10 µM, first compound 0.00316 µM
[32] = second compound 10 µM, first compound 0.01 µM
[33] = second compound 10 µM, first compound 0.0316 µM
[34] = second compound 10 µM, first compound 0.1 µM
[35] = second compound 10 µM, first compound 0.316 µM
[36] = second compound 10 µM, first compound 1 µM
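Further: spheroids exposed to agents for 7 days before viability reading.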
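Wherever viability, T/C is given: percent of DMSO vehicle control viability so 100% = vehicle and 0% = no viable signal.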

For `C=CCn1c(=O)c2cnc(Nc3ccc(N4CCN(C)CC4)cc3)nc2n1-c1cccc(C(C)(C)O)n1` + Cc1cccc(N(C)C(=O)C2C(O)CCN2c2nc(C)cc(C(F)(F)F)c2C#N)c1, the IC50 (second compound 0.0316 µM) was over 1000 nM, the IC50 (second compound 0.1 µM) was over 1000 nM and the IC50 (second compound 0.316 µM) was over 1000 nM. For the same compound, the IC50 (second compound 1 µM) was over 1000 nM, the IC50 (second compound 3.16 µM) was over 1000 nM and the IC50 (second compound 10 µM) was over 1000 nM. It also gave a viability, T/C [1] of 94.8%, a viability, T/C [2] of 91% and a viability, T/C [3] of 87.4%. It also gave a viability, T/C [4] of 86.9%, a viability, T/C [5] of 80.3% and a viability, T/C [6] of 73%. It also gave a viability, T/C [7] of 87.9%, a viability, T/C [8] of 90.2% and a viability, T/C [9] of 95.6%. For the same compound, the viability, T/C [10] was 83.9%, the viability, T/C [11] was 82.2% and the viability, T/C [12] was 68.7%. It also gave a viability, T/C [13] of 88.8%, a viability, T/C [14] of 91.4% and a viability, T/C [15] of 89.4%. The viability, T/C [16] was 82.7%, the viability, T/C [17] was 85.4% and the viability, T/C [18] was 69.8%. For the same compound, the viability, T/C [19] was 96.5%, the viability, T/C [20] was 85.2% and the viability, T/C [21] was 102%. The viability, T/C [22] was 84%, the viability, T/C [23] was 80.2% and the viability, T/C [24] was 67%. It also gave a viability, T/C [25] of 83.3%, a viability, T/C [26] of 107% and a viability, T/C [27] of 97.6%. For the same compound, the viability, T/C [28] was 99.2%, the viability, T/C [29] was 81.7% and the viability, T/C [30] was 65.4%. It also gave a viability, T/C [31] of 84.8%, a viability, T/C [32] of 89.3% and a viability, T/C [33] of 89.2%. For the same compound, the viability, T/C [34] was 86.7%, the viability, T/C [35] was 78.1% and the viability, T/C [36] was 73.9%.

Work on `CC1COCCN1c1cc(C2(S(C)(=N)=O)CC2)nc(-c2ccnc3[nH]ccc23)n1` (stereo unspecified) + Cc1cccc(N(C)C(=O)C2C(O)CCN2c2nc(C)cc(C(F)(F)F)c2C#N)c1 yielded an IC50 (second compound 0.0316 µM) of over 10000 nM, an IC50 (second compound 0.1 µM) of over 10000 nM and an IC50 (second compound 0.316 µM) of over 10000 nM. For the same compound, the IC50 (second compound 1 µM) was over 10000 nM, the IC50 (second compound 3.16 µM) was over 10000 nM and the IC50 (second compound 10 µM) was over 10000 nM. It also gave a viability, T/C [3] of 102%, a viability, T/C [4] of 95.6% and a viability, T/C [5] of 90.2%. For the same compound, the viability, T/C [6] was 99.9%, the viability, T/C (second compound 0.0316 µM, first compound 3.16 µM) was 81.4% and the viability, T/C (second compound 0.0316 µM, first compound 10 µM) was 64%. For the same compound, the viability, T/C [9] was 99.8%, the viability, T/C [10] was 110% and the viability, T/C [11] was 89.5%. The viability, T/C [12] was 92.8%, the viability, T/C (second compound 0.1 µM, first compound 3.16 µM) was 75.2% and the viability, T/C (second compound 0.1 µM, first compound 10 µM) was 73.7%. The viability, T/C [15] was 110%, the viability, T/C [16] was 91.7% and the viability, T/C [17] was 102%. The viability, T/C [18] was 83.5%, the viability, T/C (second compound 0.316 µM, first compound 3.16 µM) was 76.5% and the viability, T/C (second compound 0.316 µM, first compound 10 µM) was 68.8%. It also gave a viability, T/C [21] of 107%, a viability, T/C [22] of 97.8% and a viability, T/C [23] of 97.5%. For the same compound, the viability, T/C [24] was 81.7%, the viability, T/C (second compound 1 µM, first compound 3.16 µM) was 80.2% and the viability, T/C (second compound 1 µM, first compound 10 µM) was 67.8%. For the same compound, the viability, T/C [27] was 102%, the viability, T/C [28] was 97.9% and the viability, T/C [29] was 99%. It also gave a viability, T/C [30] of 96.3%, a viability, T/C (second compound 3.16 µM, first compound 3.16 µM) of 77.5% and a viability, T/C (second compound 3.16 µM, first compound 10 µM) of 70.8%. For the same compound, the viability, T/C [33] was 104%, the viability, T/C [34] was 110% and the viability, T/C [35] was 103%. It also gave a viability, T/C [36] of 85.8%, a viability, T/C (second compound 10 µM, first compound 3.16 µM) of 95.1% and a viability, T/C (second compound 10 µM, first compound 10 µM) of 69.8%.

For `CCc1c2c(nc3ccc(O)cc13)-c1cc3c(c(=O)n1C2)COC(=O)[C@]3(O)CC` + Cc1cccc(N(C)C(=O)C2C(O)CCN2c2nc(C)cc(C(F)(F)F)c2C#N)c1, the IC50 (second compound 0.0316 µM) was 39.2 nM, the IC50 (second compound 0.1 µM) was 37.1 nM and the IC50 (second compound 0.316 µM) was 48.8 nM. The IC50 (second compound 1 µM) was 46.5 nM, the IC50 (second compound 3.16 µM) was 62.7 nM and the IC50 (second compound 10 µM) was 49.8 nM. For the same compound, the viability, T/C [1] was 64.4%, the viability, T/C [2] was 54.2% and the viability, T/C [3] was 48.2%. The viability, T/C [4] was 46.4%, the viability, T/C [5] was 30.4% and the viability, T/C [6] was 10.9%. It also gave a viability, T/C [7] of 78.5%, a viability, T/C [8] of 57.1% and a viability, T/C [9] of 49.8%. The viability, T/C [10] was 44.9%, the viability, T/C [11] was 26.1% and the viability, T/C [12] was 8.04%. The viability, T/C [13] was 79.2%, the viability, T/C [14] was 55.2% and the viability, T/C [15] was 50.5%. For the same compound, the viability, T/C [16] was 51.6%, the viability, T/C [17] was 29.1% and the viability, T/C [18] was 8.39%. For the same compound, the viability, T/C [19] was 77.9%, the viability, T/C [20] was 61.1% and the viability, T/C [21] was 52.3%. For the same compound, the viability, T/C [22] was 47.4%, the viability, T/C [23] was 26.1% and the viability, T/C [24] was 10.2%. It also gave a viability, T/C [25] of 87%, a viability, T/C [26] of 68.8% and a viability, T/C [27] of 56.3%. It also gave a viability, T/C [28] of 48.6%, a viability, T/C [29] of 29.7% and a viability, T/C [30] of 12.6%. For the same compound, the viability, T/C [31] was 78.5%, the viability, T/C [32] was 58% and the viability, T/C [33] was 51.4%. It also gave a viability, T/C [34] of 47.9%, a viability, T/C [35] of 33.2% and a viability, T/C [36] of 9.43%.
